Patent US11021457B2, “Class of isoindolone-imide ring-1,3-dione-2-ene compounds, composition and use thereof” (WIGEN BIOMEDICINE TECHNOLOGY (SHANGHAI) CO., LTD., priority 2017, dated 2021)

Experiments:
Format in all cases: cell-based
[1] = test system: SU-DHL6; experiment: Inhibition of tumor cell proliferation, CellTiter-Glo, SU-DHL6; settings: compound concentration 50 μM, 72 hours; for cell survival rate (% of control) at 50 µM: Homo sapiens, SU-DHL-6, read-out: Inhibitory activity against proliferation (cell survival rate) SU-DHL6
Summary of the method: (§1)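 Compound tested at 50 μM for 72 h, read by CellTiter-Glo. Survival rate = (treated−blank)/(control−blank) RLU ×100, binned as +++ ≤30%, ++ >30-≤60%, + 60-<90%. Seeding 2000-10000 cells/well depending on growth rate.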

[2] = test system: K562; experiment: Inhibition of tumor cell proliferation, CellTiter-Glo, K562; settings: compound concentration 50 μM, 72 hours; for cell survival rate (%) at 50 µM: Homo sapiens, K562, read-out: Inhibitory activity against proliferation (cell survival rate) K562
Summary of the method: as §1

[3] = test system: BxPC-3; experiment: Inhibition of tumor cell proliferation, CellTiter-Glo, BxPC-3; settings: compound concentration 50 μM, 72 hours; for cell survival rate (%) at 50 µM: Homo sapiens, BXPC-3, read-out: Inhibitory activity against proliferation (cell survival rate) BxPC-3
Summary of the method: as §1

[4] = test system: MDA-MB-453; experiment: Inhibition of tumor cell proliferation, CellTiter-Glo, MDA-MB-453; settings: compound concentration 50 μM, 72 hours; for cell survival rate (%) at 50 µM: Homo sapiens, MDA-MB-453, read-out: Inhibitory activity against proliferation (cell survival rate) MDA-MB-453
Summary of the method: as §1

[5] = test system: A549; experiment: Inhibition of tumor cell proliferation, CellTiter-Glo, A549; settings: compound concentration 50 μM, 72 hours; for cell survival rate (% of control) at 50 µM: Homo sapiens, A549, read-out: Inhibitory activity against proliferation (cell survival rate) A549
Summary of the method: as §1

[6] = test system: RPMI-8226; experiment: Inhibition of tumor cell proliferation, CellTiter-Glo, RPMI-8226; settings: compound concentration 50 μM, 72 hours; for cell survival rate (% of control) at 50 µM: Homo sapiens, RPMI-8226, read-out: Inhibitory activity against proliferation (cell survival rate) RPMI-8226
Summary of the method: as §1

Compound | Inhibitory activity against proliferation (cell survival rate) SU-DHL6 [1] | Inhibitory activity against proliferation (cell survival rate) K562 [2] | Inhibitory activity against proliferation (cell survival rate) BxPC-3 [3] | Inhibitory activity against proliferation (cell survival rate) MDA-MB-453 [4] | Inhibitory activity against proliferation (cell survival rate) A549 [5] | Inhibitory activity against proliferation (cell survival rate) RPMI-8226 [6] | cell survival rate (% of control) at 50 µM [1] [%] | cell survival rate (%) at 50 µM [2] [%] | cell survival rate (%) at 50 µM [3] [%] | cell survival rate (%) at 50 µM [4] [%] | cell survival rate (% of control) at 50 µM [5] [%] | cell survival rate (% of control) at 50 µM [6] [%]
COC(=O)c1ccc(C2CC(=O)C(=CNc3cccc4c3CN(C3CCC(=O)NC3=O)C4=O)C(=O)C2)cc1 (stereo not drawn) [Compound 33] | +++ (survival rate (%)≤30) | +++ (survival rate (%)≤30) | + (60≤survival rate (%)<90) | +++ (survival rate (%)≤30) | +++ (survival rate (%)≤30) | +++ (survival rate (%)≤30) | – | – | – | – | – | –
O=C1CCC(N2Cc3c(N/C=C4\C(=O)CC(c5ccccc5)OC4=O)cccc3C2=O)C(=O)N1 (stereo not drawn) [Compound 112] | – | – | – | – | – | – | 60 to 90 | 30 to 60 | 30 to 60 | 30 to 60 | 60 to 90 | 30 to 60
O=C1CCC(N2C(=O)c3cccc(NC=C4C(=O)CC(c5ccccc5)CC4=O)c3C2=O)C(=O)N1 (stereo not drawn) [Compound 2] | +++ (survival rate (%)≤30) | +++ (survival rate (%)≤30) | + (60≤survival rate (%)<90) | + (60≤survival rate (%)<90) | ++ (30<survival rate (%)≤60) | ++ (30<survival rate (%)≤60) | – | – | – | – | – | –
O=C1CCC(N2Cc3cc(NC=C4C(=O)CC(c5ccccc5)CC4=O)ccc3C2=O)C(=O)N1 (stereo not drawn) [Compound 8] | + (60≤survival rate (%)<90) | ++ (30<survival rate (%)≤60) | ++ (30<survival rate (%)≤60) | + (60≤survival rate (%)<90) | ++ (30<survival rate (%)≤60) | ++ (30<survival rate (%)≤60) | – | – | – | – | – | –
O=C1CCC(N2Cc3c(NC=C4C(=O)CC(c5ccccc5Cc5ccccc5)CC4=O)cccc3C2=O)C(=O)N1 (stereo not drawn) [Compound 35] | +++ (survival rate (%)≤30) | +++ (survival rate (%)≤30) | ++ (30<survival rate (%)≤60) | ++ (30<survival rate (%)≤60) | +++ (survival rate (%)≤30) | +++ (survival rate (%)≤30) | – | – | – | – | – | –
O=C1CCC(N2Cc3c(NC(=O)C4CCN(CCNC=C5C(=O)CC(c6ccccc6)CC5=O)CC4)cccc3C2=O)C(=O)N1 (stereo not drawn) [Compound 61] | ++ (30<survival rate (%)≤60) | + (60≤survival rate (%)<90) | + (60≤survival rate (%)<90) | +++ (survival rate (%)≤30) | + (60≤survival rate (%)<90) | + (60≤survival rate (%)<90) | – | – | – | – | – | –
O=C1CCC(N2C(=O)c3cccc(NS(=O)(=O)N4CCN(CCNC=C5C(=O)CC(c6ccccc6)CC5=O)CC4)c3C2=O)C(=O)N1 (stereo not drawn) [Compound 71] | +++ (survival rate (%)≤30) | +++ (survival rate (%)≤30) | + (60≤survival rate (%)<90) | +++ (survival rate (%)≤30) | +++ (survival rate (%)≤30) | +++ (survival rate (%)≤30) | – | – | – | – | – | –
O=C1CCC(N2Cc3c(NC(=O)OCOC(=O)C=CC(=O)N4CCN(CCNC=C5C(=O)CC(c6ccccc6)CC5=O)CC4)cccc3C2=O)C(=O)N1 (stereo not drawn) [Compound 85] | + (60≤survival rate (%)<90) | ++ (30<survival rate (%)≤60) | + (60≤survival rate (%)<90) | + (60≤survival rate (%)<90) | ++ (30<survival rate (%)≤60) | +++ (survival rate (%)≤30) | – | – | – | – | – | –
CC(Nc1cccc2c1CN(C1CCC(=O)NC1=O)C2=O)=C1C(=O)CC(c2ccccc2)CC1=O (stereo not drawn) [Compound 73] | +++ (survival rate (%)≤30) | +++ (survival rate (%)≤30) | + (60≤survival rate (%)<90) | +++ (survival rate (%)≤30) | +++ (survival rate (%)≤30) | + (60≤survival rate (%)<90) | – | – | – | – | – | –
O=C1CCC(N2Cc3c(NC(=O)c4ccccc4NC=C4C(=O)CC(c5ccccc5)CC4=O)cccc3C2=O)C(=O)N1 (stereo not drawn) [Compound 52] | + (60≤survival rate (%)<90) | +++ (survival rate (%)≤30) | + (60≤survival rate (%)<90) | ++ (30<survival rate (%)≤60) | ++ (30<survival rate (%)≤60) | +++ (survival rate (%)≤30) | – | – | – | – | – | –
O=C1CCC(N2C(=O)c3cccc(NC(=O)CN4CCN(CCNC=C5C(=O)CC(c6ccccc6)CC5=O)CC4)c3C2=O)C(=O)N1 (stereo not drawn) [Compound 55] | +++ (survival rate (%)≤30) | + (60≤survival rate (%)<90) | + (60≤survival rate (%)<90) | ++ (30<survival rate (%)≤60) | +++ (survival rate (%)≤30) | ++ (30<survival rate (%)≤60) | – | – | – | – | – | –
COCCOCCOc1ccccc1C1CC(=O)C(=CNc2cccc3c2CN(C2CCC(=O)NC2=O)C3=O)C(=O)C1 (stereo not drawn) [Compound 110] | + (60≤survival rate (%)<90) | ++ (30<survival rate (%)≤60) | ++ (30<survival rate (%)≤60) | + (60≤survival rate (%)<90) | ++ (30<survival rate (%)≤60) | ++ (30<survival rate (%)≤60) | – | – | – | – | – | –
Nc1cccc2c1CN(C1CCC(=O)N(C(=O)N3CCN(CCNC=C4C(=O)CC(c5ccccc5)CC4=O)CC3)C1=O)C2=O (stereo not drawn) [Compound 100] | ++ (30<survival rate (%)≤60) | +++ (survival rate (%)≤30) | ++ (30<survival rate (%)≤60) | ++ (30<survival rate (%)≤60) | +++ (survival rate (%)≤30) | + (60≤survival rate (%)<90) | – | – | – | – | – | –
O=C1CCC(N2Cc3c(NC=C4C(=O)CC(c5cccs5)CC4=O)cccc3C2=O)C(=O)N1 (stereo not drawn) [Compound 36] | +++ (survival rate (%)≤30) | + (60≤survival rate (%)<90) | + (60≤survival rate (%)<90) | ++ (30<survival rate (%)≤60) | + (60≤survival rate (%)<90) | + (60≤survival rate (%)<90) | – | – | – | – | – | –
O=C1CCC(N2C(=O)c3cccc(OC(=O)OCCOCCN4CCN(CCNC=C5C(=O)CC(c6ccccc6)CC5=O)CC4)c3C2=O)C(=O)N1 (stereo not drawn) [Compound 104] | +++ (survival rate (%)≤30) | +++ (survival rate (%)≤30) | ++ (30<survival rate (%)≤60) | +++ (survival rate (%)≤30) | +++ (survival rate (%)≤30) | +++ (survival rate (%)≤30) | – | – | – | – | – | –
CC1C(=O)/C(=C/Nc2cccc3c2CN(C2CCC(=O)NC2=O)C3=O)C(=O)CC1c1ccccc1 (stereo not drawn) [Compound 127] | – | – | – | – | – | – | ≤ 30 | 60 to 90 | 60 to 90 | 60 to 90 | 60 to 90 | 60 to 90
